Patent publication US10537097B2, “Methods for treating red blood cells” (VIACELL, LLC., priority 2010, dated 2020)

What was measured:
stored RBCs = assay: 2,3-DPG level of stored RBCs after incubation with storage and/or rejuvenating composition (Roche 2,3-DPG kit); format: cell-based; conditions: 60 minutes at 37° C.
Method: A storage and/or rejuvenating composition that includes D-ribose, inosine, sodium pyruvate, and inorganic phosphate, all at a 300 mM concentration as a slurry was prepared. When used to store and/or rejuvenate RBCs, the slurry is diluted 30-fold to a final concentration of 10 mM to form a solution. […] In a study, RBCs were collected and stored for an average of 21 days at 4° C. according to standard blood banking practice. Various RBC storage and/or rejuvenating compositions were added to the 21-day old stored RBCs and held at 37° C. for one to four hours before being tested for 2,3-DPG concentrations. […] A normal 2,3-DPG concentration of RBC immediately upon harvest is 4.0 μmol/ml. […] An increase to 1.0 μmol/ml is considered a significant improvement.

[1] = Solubility of nucleoside / concentrated composition; format: physicochemical; conditions: with L-arginine in an equimolecular solution; room temperature

## Nc1nc2c(ncn2[C@@H]2O[C@H](CO)[C@@H](O)[C@H]2O)c(=O)[nH]1 [Guanosine]
Stored RBCs; 1 mM guanosine with 10 mM each inorganic phosphate and D-ribose, no sodium pyruvate
  2,3-DPG: 0.47 µmol/mL
Stored RBCs; 5 mM guanosine with 10 mM each inorganic phosphate and D-ribose, no sodium pyruvate
  2,3-DPG: 1.30 µmol/mL
Stored RBCs; 10 mM guanosine with 10 mM each inorganic phosphate and D-ribose, no sodium pyruvate
  2,3-DPG: 1.10 µmol/mL
Stored RBCs; guanosine at indicated concentration with 10 mM each inorganic phosphate and D-ribose, no sodium pyruvate
  Rejuvenation: Rejuvenation was observed

## OC[C@H]1O[C@@H](n2cnc3c(O)ncnc32)[C@H](O)[C@@H]1O [inosine]
[1]
  Concentration at which inosine remained in solution: above 50 mM

## O=C[C@H](O)[C@H](O)[C@H](O)COP(=O)(O)O [ribose-5-phosphate]
Stored RBCs; varying concentrations replacing inosine, with 10 mM each D-ribose, sodium pyruvate, inorganic phosphate
  Rejuvenation: Rejuvenation was not observed
